This is an account of results in patent US10206399B2, “Herbicidal composition comprising uracil compound as active ingredient” (Dongbu Farm Hannong Co., Ltd., priority 2012, dated 2019).

Like-named read-outs stand apart in the source and are kept apart here.

The subject of data set [1] is Echinochloa crus. In words: Dry field farming herbicidal composition test, plant mortality. The class given is in vivo.
Text: (§1) X is % damage by uracil compound (a) of formula 1 at the rate of application of p kg/ha; Y is % damage by conventional herbicidal compound (b) at the rate of application of q kg/ha; and E is the expected damage caused by compounds (a) and (b) at a rate of application of p and q kg/ha.
(§2) The expected activity for a given combination of two herbicides can be calculated using equation 1 above.
In data set [2] the test system is Digitaria sanguinalis. The data set is described as above. The class given is in vivo.
Text: as §1, §2
Data set [3] has as its system Abutilon theophrasti. The data set is described as above. The class given is in vivo.
Text: as §1, §2
Data set [4] relates to Aeschynomene indica. Described as above. The class given is in vivo.
Text: as §1, §2
For data set [5], the system named is Echinochloa crus. As to conditions: for plant mortality, measured value: Echinochloa crus.
Text: as §1, §2
The test system of data set [6] is Digitaria sanguinalis. To be noted: for plant mortality, measured value: Digitaria sanguinalis.
Text: as §1, §2
Data set [7] concerns Abutilon theophrasti. In words: whole plant or invertebrate. To be noted: for pest or weed control at 25 g/ha: read-out: Data (measured value) Abutilon theophrasti, 25 g/ha.
Text: as §1, §2
Data set [8] has as its system Aeschynomene indica. Nature of the data set: whole plant or invertebrate. To be noted: for pest or weed control at 25 g/ha: read-out: Data (measured value) Aeschynomene indica, 25 g/ha.
Text: as §1, §2
For the next data set, the system named is Xanthium spinosum. In words: whole plant or invertebrate. To be noted: for pest or weed control at 25 g/ha: read-out: Data (measured value) Xanthium spinosum, 25 g/ha.
The mark [9] stands for this setting: Echinochloa, read-out: Echinochloa crus mortality, measured value.
[10] abbreviates: Digitaria sanguinalis, read-out: Digitaria sanguinalis mortality, measured value.
Setting [11] is: Abutilon theophrasti, read-out: Abutilon theophrasti mortality, measured value.
The mark [12] stands for this setting: Aeschynomene indica, read-out: Aeschynomene indica mortality, measured value.
Setting [13] is: read-out: plant mortality, measured value, 375 g/ha.
[14] abbreviates: read-out: plant mortality, measured value, 750 g/ha.
The mark [15] stands for this setting: read-out: plant mortality, measured value, 1500 g/ha.
The mark [16] stands for this setting: read-out: plant mortality, measured value, 50 g/ha.
The mark [17] stands for this setting: read-out: plant mortality, measured value, 100 g/ha.
The mark [18] stands for this setting: read-out: plant mortality, measured value, 200 g/ha.

Text for Xanthium spinosum: as §1, §2

`COc1ncc(F)c2nc(S(=O)(=O)Nc3c(F)cccc3F)nn12` [Florasulam]: the Echinochloa crus mortality, measured value in the data set with Echinochloa crus [1] (1 g/ha), with Echinochloa crus [1] (2 g/ha) and in the data set with Echinochloa crus [1] (4 g/ha) was 0% each time. Besides, the Digitaria sanguinalis mortality, measured value with Digitaria sanguinalis [2] (1 g/ha), in the data set with Digitaria sanguinalis [2] (2 g/ha) and with Digitaria sanguinalis [2] (4 g/ha) was 0% in each case. For the same compound, the “Abutilon theophrasti mortality, measured value” in the data set on Abutilon theophrasti [3] (1 g/ha) is recorded as 12; with Abutilon theophrasti [3] (2 g/ha), 23; with Abutilon theophrasti [3] (4 g/ha) it was 54. The Aeschynomene indica mortality, measured value in the data set with Aeschynomene indica [4] (1 g/ha) was 8%; in the data set with Aeschynomene indica [4] (2 g/ha), 18%; in the data set on Aeschynomene indica [4] (4 g/ha), 46%. The “Corn mortality, measured value” in the data set on corn (1 g/ha), with corn (2 g/ha) and with corn (4 g/ha) was 0 in each case.
For the compound `CC(C)N(C(=O)COc1nnc(C(F)(F)F)s1)c1ccc(F)cc1` [Flufenacet], the pest or weed control at 87.5 g/ha in the data set with Echinochloa crus [1] (setting [9]) was 7%; in the data set with Digitaria sanguinalis [2] (setting [10]), 7%; with Abutilon theophrasti [3] (setting [11]), 9%; in the data set on Aeschynomene indica [4] (setting [12]), 6%. Moreover, the pest or weed control at 175 g/ha in the data set on Echinochloa crus [1] (setting [9]) is 24%; with Digitaria sanguinalis [2] (setting [10]) it was 22%; with Abutilon theophrasti [3] (setting [11]), 23%; in the data set on Aeschynomene indica [4] (setting [12]), 18%. Besides, the pest or weed control at 350 g/ha with Echinochloa crus [1] (setting [9]) is 50%; in the data set with Digitaria sanguinalis [2] (setting [10]) it was 53%; with Abutilon theophrasti [3] (setting [11]), 46%; in the data set on Aeschynomene indica [4] (setting [12]), 46%. Moreover, the entries for the “Corn mortality, measured value” in the data set on corn (87.5 g/ha), in the data set on corn (175 g/ha) and with corn (350 g/ha) were 0, 0 and 1, respectively.
Take `COc1nc(C)nc(NC(=O)NS(=O)(=O)c2cc(I)ccc2C(=O)O)n1` [Iodosulfuron]: the pest or weed control at 1.25 g/ha was found to be 7% with Echinochloa crus [1] (setting [9]), 12% with Digitaria sanguinalis [2] (setting [10]), 13% in the data set on Abutilon theophrasti [3] (setting [11]) and 12% in the data set on Aeschynomene indica [4] (setting [12]). The pest or weed control at 5 g/ha was 58% in the data set on Echinochloa crus [1] (setting [9]), 56% in the data set with Digitaria sanguinalis [2] (setting [10]), 61% in the data set on Abutilon theophrasti [3] (setting [11]) and 47% with Aeschynomene indica [4] (setting [12]). Further, the “Corn mortality, measured value” in the data set with corn (1.25 g/ha) was found to be 0; in the data set with corn (5 g/ha), 1.
With `CS(=O)(=O)c1cc(C(F)(F)F)ccc1C(=O)c1cnoc1C1CC1` [Isoxaflutole], the pest or weed control at 12.5 g/ha in the data set on Echinochloa crus [1] (setting [9]) came to 14%; in the data set with Digitaria sanguinalis [2] (setting [10]), 10%; with Abutilon theophrasti [3] (setting [11]), 12%; in the data set with Aeschynomene indica [4] (setting [12]), 9%. For the same compound, the pest or weed control at 25 g/ha in the data set with Echinochloa crus [1] (setting [9]) was 29%; in the data set with Digitaria sanguinalis [2] (setting [10]) it was 24%; in the data set with Abutilon theophrasti [3] (setting [11]), 31%; in the data set on Aeschynomene indica [4] (setting [12]), 28%. Besides, the pest or weed control at 50 g/ha in the data set with Echinochloa crus [1] (setting [9]) is 61%; in the data set with Digitaria sanguinalis [2] (setting [10]), 53%; with Abutilon theophrasti [3] (setting [11]), 62%; with Aeschynomene indica [4] (setting [12]), 56%. In addition, the “Corn mortality, measured value” with corn (12.5 g/ha), with corn (25 g/ha) and in the data set with corn (50 g/ha) was 0 in each case.
Turning to `CCc1cc(C)cc(CC)c1-c1c(OC(=O)C(C)(C)C)n2n(c1=O)CCOCC2` [Pinoxaden], the figures for the “Data (measured value) Echinochloa crus” value in the data set on Echinochloa crus [5] (6.25 g/ha), in the data set on Echinochloa crus [5] (12.5 g/ha) and in the data set with Echinochloa crus [5] (25 g/ha) were 10, 29 and 63, respectively. The “Data (measured value) Digitaria sanguinalis” value in the data set with Digitaria sanguinalis [6] (6.25 g/ha) is given as 12; in the data set with Digitaria sanguinalis [6] (12.5 g/ha) it was 26; in the data set on Digitaria sanguinalis [6] (25 g/ha), 57. The pest or weed control at 6.25 g/ha in the data set with Abutilon theophrasti [7] (read-out: Data (measured value) Abutilon theophrasti, 6.25 g/ha) amounted to 0%; in the data set on Aeschynomene indica [8] (read-out: Data (measured value) Aeschynomene indica, 6.25 g/ha) it was 0%; with Xanthium spinosum (read-out: Data (measured value) Xanthium spinosum, 6.25 g/ha), 0%. Further, the pest or weed control at 12.5 g/ha came out at 0% in the data set on Abutilon theophrasti [7] (read-out: Data (measured value) Abutilon theophrasti, 12.5 g/ha); 0% in the data set on Aeschynomene indica [8] (read-out: Data (measured value) Aeschynomene indica, 12.5 g/ha); 0% in the data set on Xanthium spinosum (read-out: Data (measured value) Xanthium spinosum, 12.5 g/ha). Also, the pest or weed control at 25 g/ha with Abutilon theophrasti [7], in the data set on Aeschynomene indica [8] and in the data set on Xanthium spinosum was 0% throughout.
On to `CCC(=O)Nc1ccc(Cl)c(Cl)c1` [Propanil], for which the “plant mortality, measured value” is recorded as 11 with Echinochloa crus [5] (375 g/ha); 21 in the data set on Echinochloa crus [5] (750 g/ha); 46 with Echinochloa crus [5] (1500 g/ha); 7 with Digitaria sanguinalis [6] (375 g/ha); 22 in the data set with Digitaria sanguinalis [6] (750 g/ha); 45 in the data set with Digitaria sanguinalis [6] (1500 g/ha). For the same compound, the pest or weed control at 375 g/ha with Abutilon theophrasti [7] (setting [13]), in the data set with Aeschynomene indica [8] (setting [13]) and in the data set on Xanthium spinosum (setting [13]) was 10% throughout. Besides, the pest or weed control at 750 g/ha in the data set with Abutilon theophrasti [7] (setting [14]) was found to be 23%; in the data set with Aeschynomene indica [8] (setting [14]), 27%; with Xanthium spinosum (setting [14]), 24%. In addition, the pest or weed control at 1500 g/ha in the data set on Abutilon theophrasti [7] (setting [15]) stood at 56%; with Aeschynomene indica [8] (setting [15]), 56%; in the data set on Xanthium spinosum (setting [15]), 58%.
As for `O=C(O)c1c(Cl)ccc2cc(Cl)cnc12` [Quinclorac], the “plant mortality, measured value” in the data set with Echinochloa crus [5] (50 g/ha) worked out at 13; in the data set on Echinochloa crus [5] (100 g/ha) it was 26; in the data set with Echinochloa crus [5] (200 g/ha), 55; in the data set on Digitaria sanguinalis [6] (50 g/ha) it was 6; with Digitaria sanguinalis [6] (100 g/ha), 21; in the data set on Digitaria sanguinalis [6] (200 g/ha), 49. Besides, the pest or weed control at 50 g/ha was determined as 9% with Abutilon theophrasti [7] (setting [16]), 10% in the data set with Aeschynomene indica [8] (setting [16]) and 11% with Xanthium spinosum (setting [16]). Besides, the pest or weed control at 100 g/ha was 26% in the data set on Abutilon theophrasti [7] (setting [17]), 27% with Aeschynomene indica [8] (setting [17]) and 29% with Xanthium spinosum (setting [17]). For the same compound, the pest or weed control at 200 g/ha in the data set on Abutilon theophrasti [7] (setting [18]) is 57%; in the data set with Aeschynomene indica [8] (setting [18]), 57%; with Xanthium spinosum (setting [18]), 62%.
Consider `CCO/N=C(\CC)C1=C(O)CC(c2c(C)cc(C)cc2C)CC1=O` (stereo not shown) [Tralkoxydim], for which the “Data (measured value) Echinochloa crus” value is 10 in the data set with Echinochloa crus [5] (25 g/ha), 24 in the data set with Echinochloa crus [5] (50 g/ha) and 56 in the data set with Echinochloa crus [5] (100 g/ha). The “Data (measured value) Digitaria sanguinalis” value with Digitaria sanguinalis [6] (25 g/ha) was 8; in the data set on Digitaria sanguinalis [6] (50 g/ha), 21; with Digitaria sanguinalis [6] (100 g/ha), 47. The pest or weed control at 25 g/ha in the data set on Abutilon theophrasti [7], in the data set with Aeschynomene indica [8] and in the data set with Xanthium spinosum was 0% each time. Further, the pest or weed control at 50 g/ha in the data set on Abutilon theophrasti [7] (read-out: Data (measured value) Abutilon theophrasti, 50 g/ha) is 0%; in the data set on Aeschynomene indica [8] (read-out: Data (measured value) Aeschynomene indica, 50 g/ha), 0%; in the data set on Xanthium spinosum (read-out: Data (measured value) Xanthium spinosum, 50 g/ha) it was 0%. For the same compound, the pest or weed control at 100 g/ha in the data set with Abutilon theophrasti [7] (read-out: Data (measured value) Abutilon theophrasti, 100 g/ha) was found to be 0%; in the data set with Aeschynomene indica [8] (read-out: Data (measured value) Aeschynomene indica, 100 g/ha), 0%; in the data set with Xanthium spinosum (read-out: Data (measured value) Xanthium spinosum, 100 g/ha), 0%.
In the case of `O=C(O)COc1nc(Cl)c(Cl)cc1Cl` [Triclopyr], the “Data (measured value) Echinochloa crus” value in the data set on Echinochloa crus [5] (125 g/ha), in the data set on Echinochloa crus [5] (250 g/ha) and with Echinochloa crus [5] (500 g/ha) was 0 throughout. The “Data (measured value) Digitaria sanguinalis” value with Digitaria sanguinalis [6] (125 g/ha), in the data set with Digitaria sanguinalis [6] (250 g/ha) and in the data set on Digitaria sanguinalis [6] (500 g/ha) was 0 each time. Further, the pest or weed control at 125 g/ha in the data set with Abutilon theophrasti [7] (read-out: Data (measured value) Abutilon theophrasti, 125 g/ha) is 11%; in the data set with Aeschynomene indica [8] (read-out: Data (measured value) Aeschynomene indica, 125 g/ha) it was 9%; in the data set on Xanthium spinosum (read-out: Data (measured value) Xanthium spinosum, 125 g/ha) it was 13%. The pest or weed control at 250 g/ha in the data set on Abutilon theophrasti [7] (read-out: Data (measured value) Abutilon theophrasti, 250 g/ha) is 23%; in the data set on Aeschynomene indica [8] (read-out: Data (measured value) Aeschynomene indica, 250 g/ha), 26%; in the data set with Xanthium spinosum (read-out: Data (measured value) Xanthium spinosum, 250 g/ha), 30%. Moreover, the pest or weed control at 500 g/ha was 54% with Abutilon theophrasti [7] (read-out: Data (measured value) Abutilon theophrasti, 500 g/ha); 58% in the data set on Aeschynomene indica [8] (read-out: Data (measured value) Aeschynomene indica, 500 g/ha); 59% in the data set on Xanthium spinosum (read-out: Data (measured value) Xanthium spinosum, 500 g/ha).
